Reference: ChEMBL document CHEMBL3867469, “Discovery of phenoxyindazoles and phenylthioindazoles as RORγ inverse agonists” (Bioorg Med Chem Lett, 2016)

Columns and labels:
[1] = molecular target: T1, Retinoic acid receptor gamma (Homo sapiens, UniProt P13631)
T1 sequence (P13631 whole entry): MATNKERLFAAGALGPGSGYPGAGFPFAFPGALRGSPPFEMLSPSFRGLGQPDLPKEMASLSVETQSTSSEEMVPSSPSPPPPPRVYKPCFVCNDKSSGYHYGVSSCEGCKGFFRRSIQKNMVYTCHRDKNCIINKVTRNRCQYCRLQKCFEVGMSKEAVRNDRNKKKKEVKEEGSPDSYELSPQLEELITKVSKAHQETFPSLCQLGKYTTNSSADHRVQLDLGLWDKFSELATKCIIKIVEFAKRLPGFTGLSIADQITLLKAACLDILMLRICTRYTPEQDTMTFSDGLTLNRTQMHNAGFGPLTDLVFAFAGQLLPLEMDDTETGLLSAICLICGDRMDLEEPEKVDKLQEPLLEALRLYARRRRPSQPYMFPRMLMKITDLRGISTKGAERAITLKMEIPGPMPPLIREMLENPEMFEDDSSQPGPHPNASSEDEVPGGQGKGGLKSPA
Description: Inverse agonist activity at GAL4 DBD-fused RARgamma LBD (unknown origin) expressed in human HG5LN cells after 18 hrs by luciferase reporter gene assay

physchem = settings: buffer, pH 6.5
[2] = Photocytotoxicity against human neonatal keratinocytes assessed as decrease in cell viability preincubated for 30 mins followed by 5 J/cm2 UV light irradiation for 15 mins measured after 24 hrs by neutral red dye based assay; type: toxicity; settings: neonatal keratinocyte
[3] = molecular target: T2, Nuclear receptor ROR-gamma (Homo sapiens, UniProt P51449)
T2 sequence (P51449 whole entry): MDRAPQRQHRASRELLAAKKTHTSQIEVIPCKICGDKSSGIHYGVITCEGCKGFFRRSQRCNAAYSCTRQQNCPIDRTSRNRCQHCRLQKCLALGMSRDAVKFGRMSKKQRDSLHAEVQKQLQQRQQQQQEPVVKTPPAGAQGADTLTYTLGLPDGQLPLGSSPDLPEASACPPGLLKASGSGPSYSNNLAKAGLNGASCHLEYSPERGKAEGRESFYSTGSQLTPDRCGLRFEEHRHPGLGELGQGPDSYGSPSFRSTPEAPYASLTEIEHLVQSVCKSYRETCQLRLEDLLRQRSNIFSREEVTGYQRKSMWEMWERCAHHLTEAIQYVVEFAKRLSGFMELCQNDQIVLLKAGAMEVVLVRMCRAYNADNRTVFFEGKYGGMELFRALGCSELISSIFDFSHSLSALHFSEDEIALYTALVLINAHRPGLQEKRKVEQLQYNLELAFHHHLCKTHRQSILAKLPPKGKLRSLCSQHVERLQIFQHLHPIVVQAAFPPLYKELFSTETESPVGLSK
Description: Inverse agonist activity at GAL4 DBD-fused RORgammat LBD (unknown origin) expressed in HG5LN cells after 18 hrs by luciferase reporter gene assay

[4] = rat, microsomes
Description: Stability in rat microsomes

in vitro [5] = settings: human, neonatal keratinocytes
Description: Photocytotoxicity against human neonatal keratinocytes assessed as decrease in cell viability by measuring ratio of IC50 in presence of UV to IC50 in absence of UV after 30 mins by neutral red dye based assay

[6] = molecular target: T3, Nuclear receptor ROR-alpha (Homo sapiens, UniProt P35398)
T3 sequence (P35398 whole entry): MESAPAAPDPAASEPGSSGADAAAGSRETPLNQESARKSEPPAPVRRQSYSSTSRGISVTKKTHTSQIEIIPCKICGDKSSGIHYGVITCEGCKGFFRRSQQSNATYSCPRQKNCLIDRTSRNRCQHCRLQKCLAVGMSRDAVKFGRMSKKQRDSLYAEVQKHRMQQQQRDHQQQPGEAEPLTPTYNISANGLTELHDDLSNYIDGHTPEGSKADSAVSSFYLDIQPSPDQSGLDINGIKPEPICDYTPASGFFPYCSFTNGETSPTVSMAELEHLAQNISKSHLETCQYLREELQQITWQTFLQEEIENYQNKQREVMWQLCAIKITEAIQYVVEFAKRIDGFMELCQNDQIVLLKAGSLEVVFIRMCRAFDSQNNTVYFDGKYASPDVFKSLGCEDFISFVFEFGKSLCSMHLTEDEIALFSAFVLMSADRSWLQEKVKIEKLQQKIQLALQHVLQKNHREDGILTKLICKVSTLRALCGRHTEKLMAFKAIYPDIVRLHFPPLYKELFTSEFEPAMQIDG
Description: Inverse agonist activity at GAL4 DBD-fused RORalpha LBD (unknown origin) expressed in HG5LN cells after 18 hrs by luciferase reporter gene assay

[7] = molecular target: T2, Nuclear receptor ROR-gamma; experiment: Inverse agonist activity at RORgamma in human CD4+ T cells assessed as inhibition of IL-17A release after 4 days by HTRF assay; type: cell-based, T-cell
in vitro [8] = settings: human, hepatocytes
in vitro [9] = settings: human, plasma
Description: Fraction unbound in human plasma at 5 uM after 4 hrs by equilibrium dialysis based LC-MS/MS analysis

| SMILES | IC50 [1] | logD (physchem) | Activity [2] | IC50 [3] | Stability [4] | selectivity ratio at 0.5 h (in vitro [5]) | IC50 [6] | IC50 [7] | hepatocyte CLint at […], 1 µM (in vitro [8]) | fraction unbound at 4 h, 5 µM (in vitro [9]) |
| --- | --- | --- | --- | --- | --- | --- | --- | --- | --- | --- |
| O=C(O)c1ccc(-c2nn(C(=O)c3c(Cl)cccc3Cl)c3ccccc23)cc1 | 1300 nM | 2.4 | Toxic | 60 nM | – | – | – | – | – | – |
| Cc1cccc(Cl)c1Oc1nn(-c2ccc(C(=O)O)cc2)c2ccc(C(=O)N(C)C)cc12 | > 10000 nM | 1.5 | – | 120 nM | Unstable | 36 | > 10000 nM | 150 nM | 54 µL/min/1e6 cells | 0.024 |
| Cc1cccc(C)c1Sc1nn(-c2ccc(C(=O)O)cc2)c2ccc(C(=O)N(C)C)cc12 | > 10000 nM | 1.6 | Toxic | 370 nM | – | – | – | – | – | – |
